In patent publication EP1388586A2, “Identification of broadly reactive DR restricted epitopes” (priority 1998, dated 1999):
Like-named read-outs stand apart in the source and are kept apart here. Square brackets hold non-standard residues; d marks the D form. Ends that are not written are not given here. Peptide text beside a SMILES is read from it.

Experiments:
[1] = molecular target: T1, DRB1*0401 (DR4w4) (Homo sapiens, UniProt P01903+P01911, A100K/A169T/F76Y/I96L/K127E/L162R/M171V/N62H/P40V/Q125Y/R42H/S133A/S149N/S66Y/V115G/V209L/W38E); assay: Class II peptide-binding assay, DR4w4;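 note: unlabeled test peptides compete with a radiolabeled probe peptide for binding to affinity-purified HLA-DR, with DR amount titrated to capture a small fraction of label, IC50 approximating Kd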
T1 construct: used as sources of human HLA class II molecules; endogenous in cells; host or cells: PREISS (EBV-transformed homozygous B cell line)

[2] = molecular target: T2, DRB10404 (DR4w14) (Homo sapiens, UniProt P01903+P01911, A100R/A169T/F76Y/I96L/K127E/L162R/M171V/N62H/P40V/Q125Y/R42H/S133A/S149N/S66Y/V209L/W38E); assay: Class II peptide-binding assay, DR4w14;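 note: unlabeled peptides compete with a radiolabeled probe for binding to affinity-purified HLA-DR, neutral pH, class II amount titrated to bind a small fraction of label, IC50 approximates Kd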
T2 construct: used as sources of human HLA class II molecules; endogenous in cells; host or cells: BIN40 (EBV-transformed homozygous B cell line)

[3] = molecular target: T3, DRB1*0101 (DR1) (Homo sapiens, UniProt P01903+P01911, A100R/D57E/F55L/F60I/F76Y/I96L/L162R/M171V/P40L/Q125E/R42F/V115G/Y59C); assay: Class II peptide-binding assay, DR1;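 note: competition assay: unlabeled test peptides inhibit binding of a radiolabeled probe peptide to purified DR, with half-maximal inhibition taken as an approximate dissociation constant Kd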
T3 construct: used as sources of human HLA class II molecules; endogenous in cells; host or cells: LG2 (EBV-transformed homozygous B cell line)

[4] = molecular target: T4, DRB1*1101 (DR5w11) (Homo sapiens, UniProt P01903+P01911, A100R/A169T/A87E/I96F/K41T/L162R/M171V/P40S/Q125H/Q178H/Q39Y/Q99D/R42S/S66Y/T262R/V115G/W38E); assay: Class II peptide-binding assay, DR5w11;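 note: competition by unlabeled test peptide against iodinated probe peptide binding to affinity-purified HLA-DR, class II amount titrated beforehand, half-maximal inhibitory concentration read as approximate Kd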
T4 construct: used as sources of human HLA class II molecules; endogenous in cells; host or cells: SWEIG (EBV-transformed homozygous B cell line)
T4 sequence (P01903 26-254, other chains not shown): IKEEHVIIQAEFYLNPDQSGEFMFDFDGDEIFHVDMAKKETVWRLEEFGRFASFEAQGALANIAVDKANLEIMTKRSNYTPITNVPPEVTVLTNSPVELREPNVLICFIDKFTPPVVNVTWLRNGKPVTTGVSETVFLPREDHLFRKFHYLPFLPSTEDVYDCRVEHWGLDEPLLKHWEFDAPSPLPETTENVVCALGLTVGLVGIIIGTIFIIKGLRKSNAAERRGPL
Procedure: Class II peptide-binding assays. […] These assays were chosen as to be representative of the most common DR alleles.
Radiolabeled peptides were iodinated using the chloramine-T method. […] In appropriate stoichiometric conditions, the IC50 of an unlabeled test peptide to the purified DR is a reasonable approximation of the affinity of interaction (Kd). Peptides were tested in two to four completely independent experiments. […] Final detergent concentration in the incubation mixture was 0.05% Nonidet P-40. Assays were performed at pH 7.0 with the exception of DR3, which was performed at pH 4.5, and DRw53, which was performed at pH 5.0.
All subsequent inhibition and direct binding assays were the performed using these class II concentrations.

[5] = molecular target: DRB1*0701 (DR7) (Homo sapiens, UniProt P01903+P01911, A100R/A102G/A103Q/D57E/D86V/E43K/F76Y/K127E/L162R/M171V/P40G/Q125H/Q99D/R33Q/R42Y/R54Q/S133A/S66F/T210M/V115G/Y107V/Y59L/Y89S); assay: Class II peptide-binding assay, DR7;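 note: unlabeled peptides compete with an iodinated probe peptide for binding to affinity-purified HLA-DR at neutral pH, DR amount titered to bind a small tracer fraction, IC50 approximating Kd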
[6] = molecular target: T5, DRB5*0101 (DR2w2a) (Homo sapiens, UniProt P01903+Q30154); assay: Class II peptide-binding assay, DR2w2a (DR2w2B2);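 note: competitive binding assay: unlabeled peptide inhibiting binding of a radiolabeled probe peptide to purified DR molecules at pH 7.0, IC50 approximating Kd, lower means stronger binding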
T5 construct: used as sources of human HLA class II molecules; endogenous in cells; host or cells: GM3107 (EBV-transformed homozygous B cell line)

[7] = read-out: DR4w4 nM (In IC50 Format), purified HLA DR4w4
[8] = read-out: DR4w14 nM (In IC50 Format), purified HLA DR4w14
[9] = read-out: DR1 nM (In IC50 Format), purified HLA DR1
[10] = read-out: DR5w11 nM (In IC50 Format), purified HLA DR5w11
[11] = read-out: DR7 nM (In IC50 Format), purified HLA DR7
[12] = read-out: DR2w2B2 nM (In IC50 Format), purified HLA DR2w2β2
[13] = purified HLA DR4w4, read-out: DR4w4 nM (In IC50 Format)
[14] = purified HLA DR4w14, read-out: DR4w14 nM (In IC50 Format)
[15] = purified HLA DR1, read-out: DR1 nM (In IC50 Format)
[16] = purified HLA DR5w11, read-out: DR5w11 nM (In IC50 Format)
[17] = purified HLA DR7, read-out: DR7 nM (In IC50 Format)
[18] = purified HLA DR2w2β2, read-out: DR2w2B2 nM (In IC50 Format)
[19] = read-out: DR4w4 nM, Table VIII, In IC50 Format
[20] = read-out: DR4w14 nM, Table VIII, In IC50 Format
[21] = read-out: DR1 nM, Table VIII, In IC50 Format
[22] = read-out: DR5w11 nM, Table VIII, In IC50 Format
[23] = read-out: DR7 nM, Table VIII, In IC50 Format
[24] = read-out: DR2w2B2 nM, Table VIII, In IC50 Format

| Compound | IC50 [1, 7] [nM] | IC50 [2, 8] [nM] | IC50 [3, 9] [nM] | IC50 [4, 10] [nM] | IC50 [5, 11] [nM] | IC50 [6, 12] [nM] | also measured |
| --- | --- | --- | --- | --- | --- | --- | --- |
| YARFQSQTTLKAKT-NH2 [Peptide 717.02] | 3.7 | 18.5 | 2.9 | 18.9 | 2780 | 125 | – |
| MQYIKANSKFIGITE [Peptide 812.05] | – | – | – | – | – | – | IC50 [1, 13]: 229 nM; IC50 [2, 14]: 84.5 nM; IC50 [3, 15]: 64.1 nM; IC50 [4, 16]: 6.7 nM; IC50 [5, 17]: 7.8 nM; IC50 [6, 18]: 2.4 nM |
| YARFASQTTLKAKT-NH2 [Peptide 717.56] | 5.2 | 12.8 | 3.1 | 21.1 | 6250 | 118 | – |
| YARFQSQSTLKAKT-NH2 [Peptide 717.16] | 1.8 | 8.1 | 6 | 4 | 3570 | 105 | – |
| YARFQSQTTLKAKA-NH2 [Peptide 717.48] | 2.6 | 5.3 | 1.8 | 5.9 | 6250 | 40.8 | – |
| CPIAIMSALAMVYLGAKDS [Peptide 705.04] | 882 | 1140 | 53.2 | 6670 | 1090 | 408 | – |
| C[C@H](NC(=O)[C@H](N)Cc1ccc(O)cc1)C(=O)N[C@@H](C)C(=O)N[C@@H](Cc1ccccc1)C(=O)N[C@@H](C)C(=O)N[C@@H](C)C(=O)N[C@@H](C)C(=O)N[C@@H](C)C(=O)N1CCC[C@H]1C(=O)N[C@@H](CCCCN)C(=O)N[C@@H](C)C(=O)N[C@@H](C)C(=O)N[C@@H](C)C(=O)N[C@H](C)C(N)=O [Peptide 828.06] (H-[dY]AAFAAAAPKAAA[dA]-NH2) | – | – | – | – | – | – | IC50 [1, 19]: 214 nM; IC50 [2, 20]: 10000 nM; IC50 [3, 21]: 2 nM; IC50 [4, 22]: 235 nM; IC50 [5, 23]: 1920 nM; IC50 [6, 24]: 19 nM |
| YIAFLKQATAKLAT [Peptide 723.01] | 16.7 | 746 | 4.9 | 30.5 | 15.6 | 69 | – |
| C[C@H](NC(=O)[C@H](C)NC(=O)[C@H](C)NC(=O)[C@H](Cc1ccc(O)cc1)NC(=O)[C@H](C)NC(=O)[C@@H](C)N)C(=O)N[C@@H](C)C(=O)N[C@H](C(=O)N[C@@H](C)C(=O)N[C@@H](CCCCN)C(=O)N[C@@H](C)C(=O)N[C@@H](C)C(=O)N[C@H](C)C(N)=O)[C@@H](C)O [Peptide 762.02] (H-[dA]AYAAAATAKAA[dA]-NH2) | 2 | 1430 | 1.7 | 25.6 | 694 | 105 | – |
| YARFQSQTTLKAKE-NH2 [Peptide 717.28] | 26.5 | 12.8 | 4.5 | 16.7 | 5000 | 95.2 | – |
| YAKFQSQTTLKAKT-NH2 [Peptide 717.40] | 4.9 | 14.3 | 8.8 | 8.7 | 3570 | 167 | – |
| AFAAAATLKA-NH2 [Peptide 770.01] | 23.7 | 357 | 78.1 | 250 | 694 | 43.1 | – |
| EALVRQGLAKVAYVYKPNN [NASE 101-] | – | – | – | – | – | – | IC50 [1, 19]: 978 nM; IC50 [2, 20]: 1140 nM; IC50 [3, 21]: 2.2 nM; IC50 [4, 22]: 100 nM; IC50 [5, 23]: 454 nM; IC50 [6, 24]: 154 nM |
| YARFNSQTTLKAKT-NH2 [Peptide 717.44] | 4.2 | 7.4 | 5 | 32.8 | 5000 | 80 | – |
| CC[C@H](C)[C@H](NC(=O)CNC(=O)[C@@H](NC(=O)[C@H](Cc1ccccc1)NC(=O)[C@H](CCCCN)NC(=O)[C@H](CO)NC(=O)[C@H](CC(N)=O)NC(=O)[C@H](C)NC(=O)[C@H](CCCCN)NC(=O)[C@@H](NC(=O)[C@H](Cc1ccc(O)cc1)NC(=O)[C@@H](N)CCC(N)=O)[C@@H](C)CC)[C@@H](C)CC)C(=O)N[C@H](C(=O)N[C@@H](CCC(=O)O)C(=O)N[C@@H](CC(C)C)C(=O)N[C@@H](CCCCN)C(=O)N[C@@H](CCCCN)C(N)=O)[C@@H](C)O [Peptide 812.01] | – | – | – | – | – | – | IC50 [1, 13]: 409 nM; IC50 [2, 14]: 16700 nM; IC50 [3, 15]: 80.6 nM; IC50 [4, 16]: 28.6 nM; IC50 [5, 17]: 357 nM; IC50 [6, 18]: 16 nM |
| CC(C)C[C@H](NC(=O)[C@@H](NC(=O)[C@@H](NC(=O)[C@H](CCC(N)=O)NC(=O)[C@H](CCCNC(=N)N)NC(=O)[C@H](CCC(N)=O)NC(=O)[C@H](Cc1ccccc1)NC(=O)[C@H](C)NC(=O)[C@H](C)NC(=O)[C@H](N)Cc1ccc(O)cc1)[C@@H](C)O)[C@@H](C)O)C(=O)N[C@@H](CCCCN)C(=O)N[C@@H](C)C(=O)N[C@@H](C)C(=O)N[C@H](C)C(N)=O [Peptide 781.16] (H-[dY]AAFQRQTTLKAA[dA]-NH2) | 3.8 | 7 | 3 | 10 | 2780 | 155 | – |
| YARFQSLTTLKAKT-NH2 [Peptide 717.15] | 2 | 9.4 | 1.2 | 5.3 | 961 | 23.8 | – |
| ARRLKAIYARRLK [Peptide 640.04] | – | – | – | – | – | – | IC50 ([1]; read-out: In IC50 Format DR4w4, Table VIII): > 22500 nM; IC50 ([2]; read-out: In IC50 Format DR4w14, Table VIII): 667 nM; IC50 ([3]; read-out: In IC50 Format DR1, Table VIII): 3.6 nM; IC50 ([4]; read-out: In IC50 Format DR5w11, Table VIII): 667 nM; IC50 ([5]; read-out: In IC50 Format DR7, Table VIII): 29.2 nM; IC50 ([6]; read-out: In IC50 Format DR2w2β2, Table VIII): 8.7 nM |
| YARFASQTTLKAKT-NH2 [Peptide 782.02] | 2.5 | 14.7 | 3.6 | 25.7 | 6250 | 191 | – |
| YARFQSQTTLAAKT-NH2 [Peptide 717.50] | 3.1 | 4.3 | 4.2 | 20.8 | 4170 | 274 | – |
| YARFQSQTSLKAKT-NH2 [Peptide 717.31] | 5.1 | 10.6 | 4.5 | 20 | 676 | 143 | – |
| YERFQSQTTLKAKT-NH2 [Peptide 717.39] | 10.7 | 16.7 | 18.5 | 47.6 | 8330 | 800 | – |
| KMYFNLINTKCYKLEH [Peptide 541.14] | – | – | – | – | – | – | IC50 ([1]; Table VIII, read-out: In IC50 Format DR4w4): 2140 nM; IC50 ([2]; Table VIII, read-out: In IC50 Format DR4w14): 3570 nM; IC50 ([3]; Table VIII, read-out: In IC50 Format DR1): 714 nM; IC50 ([4]; Table VIII, read-out: In IC50 Format DR5w11): 250 nM; IC50 ([5]; Table VIII, read-out: In IC50 Format DR7): 269 nM; IC50 ([6]; Table VIII, read-out: In IC50 Format DR2w2β2): 103 nM |
| C[C@H](NC(=O)[C@H](N)Cc1ccc(O)cc1)C(=O)N[C@@H](C)C(=O)N[C@@H](Cc1ccccc1)C(=O)N[C@@H](C)C(=O)N[C@@H](C)C(=O)N[C@@H](C)C(=O)N[C@@H](C)C(=O)N[C@H](C(=O)N[C@@H](CCCCN)C(=O)N[C@@H](C)C(=O)N[C@@H](C)C(=O)N[C@@H](C)C(=O)N[C@H](C)C(N)=O)[C@@H](C)O [Peptide 828.10] (H-[dY]AAFAAAATKAAA[dA]-NH2) | – | – | – | – | – | – | IC50 [1, 19]: 3.4 nM; IC50 [2, 20]: 111 nM; IC50 [3, 21]: 1.9 nM; IC50 [4, 22]: 22.2 nM; IC50 [5, 23]: 1250 nM; IC50 [6, 24]: 19.8 nM |
| YARFQSQTTLKART-NH2 [Peptide 717.25] | 1.2 | 10.6 | 4.5 | 13.3 | 4170 | 64.5 | – |
